Reference: patent US10662481B2, “Methods for predicting response to HDACi/DNMTi combination in multiple myeloma” (INSERM (INSTITUT NATIONAL DE LA SANTÉ ET DE LA RECHERCHE …, priority 2014, dated 2020)

Columns and labels:
Assay type in all cases: cell-based, human
Conditions in all cases: 0.5 μM decitabine, mean ± SD of viable cells, 3 experiments
[1] = tested on: XG-5; test: Cell viability of HMCLs by trypan blue exclusion (XG-5)
[2] = tested on: XG-6; test: Cell viability of HMCLs by trypan blue exclusion (XG-6)
[3] = tested on: XG-7; test: Cell viability of HMCLs by trypan blue exclusion (XG-7)
[4] = tested on: XG-20; test: Cell viability of HMCLs by trypan blue exclusion (XG-20)
[5] = tested on: LP1; test: Cell viability of HMCLs by trypan blue exclusion (LP1)

SMILES: Nc1ncn([C@H]2C[C@H](O)[C@@H](CO)O2)c(=O)n1 [5-aza, 5-aza-2′-deoxycytidine]
- Cell viability (%) Day 3 5-aza [1]: 65 ± 5%
- Cell viability (%) Day 3 5-aza [2]: 90 ± 1%
- Cell viability (%) Day 3 5-aza [3]: 90 ± 2%
- Cell viability (%) Day 3 5-aza [4]: 91 ± 3%
- Cell viability (%) Day 3 5-aza [5]: 91 ± 2%
